Results taken from patent US11986452B2, “Methods of reducing the risk of heart failure” (Amarin Pharmaceuticals Ireland Limited, priority 2021, dated 2024).

How the values were obtained:
[1] = test system: TG, non-HDL-C, LDL-C, HDL-C, Apo B, hsCRP; assay: REDUCE-IT fasting lipid profile and biomarker assays over time; format: in vivo, human; conditions: for Apo B between group difference vs placebo, median % change from baseline / Apo B between group difference vs placebo, median absolute change from baseline / HDL-C between group difference vs placebo, median % change from baseline / HDL-C between group difference vs placebo, median absolute change from baseline / LDL-C Hopkins between group difference vs placebo, median % change from baseline / LDL-C Hopkins between group difference vs placebo, median absolute change from baseline / LDL-C derived between group difference vs placebo, median % change from baseline / LDL-C derived between group difference vs placebo, median absolute change from baseline / Log hsCRP between group difference vs placebo, median absolute change from baseline / Non-HDL-C between group difference vs placebo, median % change from baseline / Non-HDL-C between group difference vs placebo, median absolute change from baseline / Triglycerides between group difference vs placebo, median absolute change from baseline / hsCRP between group difference vs placebo, median absolute change from baseline: ITT
Description: Fasting Lipid Profile: The fasting lipid panel included: TG, TC, LDL-C, HDL-C, non-HDL-C, and VLDL-C. At all visits, LDL-C was calculated using the Friedewald equation. At Visit 1 and Visit 1.1 direct LDL-C were used if at the same visit TG>400 mg/dL (4.52 mmol/L). These LDL-C values were used for the evaluation of the LDL-C inclusion criterion (LDL-C qualifying measurements for randomization) and for the assessment of changes in the statin therapy when LDL-C was not at goal. […] In addition, irrespective of the TG levels, at Visit 2 (0 Months of Follow-up, baseline) and at Visit 4 (12 Months of Follow-up), LDL-C were measured by preparative ultracentrifugation. These preparative ultracentrifugation LDL-C measurements were used in the statistical analysis including the calculation of the percent change from baseline (1 year versus baseline). Hopkins LDL-C was calculated for each visit.
Biomarkers Assays: The biomarker assays included: hsCRP, Apo B and hsTnT.
The fasting lipid panel was tested at Screening (Visit 1 or Visit 1.1), Randomization visit (Visit 2; Day 0), Visit 3 (Day 120; ˜4 Months) and all other follow-up visits including the last visit. For change from baseline to 1 year preparative ultracentrifugation measurements for LDL-C were analyzed, unless this value was missing. If the LDL-C preparative ultracentrifugation values were missing, then another LDL-C value was used, with prioritization of values obtained from LDL-C Direct measurements, followed by LDL-C derived by the Friedewald calculation (only for subjects with TG<400 mg/dL), and finally LDL-C derived using the calculation published by Hopkins University investigators (Martin S S, Blaha M J, Elshazly M B, et al. Comparison of a novel method vs the Friedewald equation for estimating low-density lipoprotein cholesterol levels from the standard lipid profile. JAMA. 2013; 310:2061-8.). In addition, change from baseline to day 120 in LDL-C utilizing Friedewald's and Hopkins methods was analyzed, using the arithmetic mean of LDL-C obtained at Visit 2 (Day 0) and the preceding Visit 1 (or Visit 1.1). If one of these values was missing, the single available LDL-C value was used. LDL-C according to Hopkins was calculated at each visit.
The randomization visit was considered Baseline. If a baseline value was not available from the randomization visit, then the latest screening value was used. For measurements of lipids, lipoproteins and inflammatory markers, the change and the percent change were summarized at each visit. Since these biomarkers are typically not normally distributed, the Wilcoxon rank-sum test was used for treatment comparisons of the percent change from baseline, and medians and quartiles were provided for each treatment group. The medians of the differences between the treatment groups and 95% CIs were estimated with the Hodges-Lehmann method. In addition, shift-tables were generated as appropriate.

[2] = test system: statin-treated patients with established atherosclerosis or diabetes plus risk factor; assay: Example 2: recurrent and total ischemic events analysis (Andersen-Gill, Wei-Lin-Weissfeld); format: in vivo, human; conditions: for Total key secondary endpoint events: HR vs placebo: without adjustment for stratification differences
Description: The following study was a multi-center, placebo-controlled clinical trial the details of which are described above in Example 1, the REDUCE-IT design. […] Randomization was stratified by cardiovascular risk cohort (i.e., secondary or primary prevention), use of ezetimibe, and by geographic region.
The primary outcome for the study was total recurrent events consisting of the composite of cardiovascular death, nonfatal myocardial infarction, nonfatal stroke, coronary revascularization, or hospitalization for unstable angina. Recurrent event analyses were also performed for the key secondary endpoint, a composite of cardiovascular death, non-fatal myocardial infarction, or non-fatal stroke. For each of these composite endpoints, the effects of icosapent ethyl in the secondary and primary prevention strata were examined separately.
Demographic and baseline disease characteristics are presented using frequencies and percentages for categorical variables and medians with interquartile ranges for continuous variables. Between treatment group comparisons were derived using the chi-square test for categorical variables and Wilcoxon rank test for continuous variables. All clinical endpoint events used in the efficacy analyses were adjudicated by an independent Clinical Endpoint Committee (CEC) who were blinded to the treatment assignment. Since the primary efficacy endpoint was the time from randomization to the first occurrence of any component of the composite endpoint, and recurrence of such events within each patient is possible, a pre-specified analysis using a Cox proportional-hazard with the counting-process formulation of Andersen and Gill was performed to model the first and all recurrent cardiovascular events. Hazard ratios (HR) and corresponding 95% confidence intervals (CI) are reported from this model. In addition, as a marginal model and an extension of survival models based on the Cox proportional hazard model, the modified Wei-Lin-Weissfeld (WLW) method for analysis of recurrent events in the presence of deaths was carried out as a supportive analysis. In addition, as pre-specified, a recurrent event analysis using the Andersen-Gill and Wei-Lin-Weissfeld methods were carried out for the individual primary event components other than CV death. Though not pre-specified, additional recurrent event analyses were performed for the key secondary endpoint, which is a composite of CV death, non-fatal MI, or non-fatal stroke, and for the primary endpoint and the key secondary endpoint in the primary and secondary prevention strata to explore further the consistency of clinical benefit of icosapent ethyl. In subgroup analyses of the two cardiovascular risk strata (i.e., primary and secondary prevention), site-level discrepancies in cardiovascular risk group assignment occurring at entry and detected during the study (1.8%) were adjusted to conform with documented medical history data prior to randomization. All efficacy analyses were performed according to the intention-to-treat principle. All tests were based on a 2-sided nominal significance level of 5% with no adjustments for multiple comparisons.

With `CC/C=C\C/C=C\C/C=C\C/C=C\C/C=C\CCCC(=O)OCC` [icosapent ethyl, eicosapentaenoic acid ethyl ester] the “Apo B between group difference vs placebo, median % change from baseline” value ([1]; Last Visit) was −6.7%, the “Apo B between group difference vs placebo, median absolute change from baseline” value ([1]; Last Visit) was -5.0 mg/dL and the “HDL-C between group difference vs placebo, median % change from baseline” value ([1]; Last Visit) was −3.0%. For the same compound, the “HDL-C between group difference vs placebo, median absolute change from baseline” value ([1]; Last Visit) was -1.0 mg/dL, the “LDL-C Hopkins between group difference vs placebo, median % change from baseline” value ([1]; Last Visit) was −7.4% and the “LDL-C Hopkins between group difference vs placebo, median absolute change from baseline” value ([1]; Last Visit) was -6.2 mg/dL. The “LDL-C derived between group difference vs placebo, median % change from baseline” value ([1]; Last Visit) was −6.6%, the “LDL-C derived between group difference vs placebo, median absolute change from baseline” value ([1]; Last Visit) was -5.0 mg/dL and the “Log hsCRP between group difference vs placebo, median absolute change from baseline” value ([1]; Last Visit) was −0.4 mg/L. For the same compound, the “Non-HDL-C between group difference vs placebo, median % change from baseline” value ([1]; Last Visit) was −8.6%, the “Non-HDL-C between group difference vs placebo, median absolute change from baseline” value ([1]; Last Visit) was -10.0 mg/dL and the “Triglycerides between group difference vs placebo, median absolute change from baseline” value ([1]; Last Visit) was -32.0 mg/dL. The “hsCRP between group difference vs placebo, median absolute change from baseline” value ([1]; Last Visit) was -0.8 mg/L, the “HDL-C between group difference vs placebo, median % change from baseline” value ([1]; Month 4) was −7.2% and the “HDL-C between group difference vs placebo, median absolute change from baseline” value ([1]; Month 4) was -3.0 mg/dL. For the same compound, the “LDL-C Hopkins between group difference vs placebo, median absolute change from baseline” value ([1]; Month 4) was -8.7 mg/dL, the “Apo B median value” ([1]; Year 1 (Table 18)) was 80.0 mg/dL and the hsCRP median value ([1]; Year 1 (Table 18)) was 1.8 mg/L. The “HDL-C between group difference vs placebo, median % change from baseline” value ([1]; Year 1) was −6.3%, the “HDL-C between group difference vs placebo, median absolute change from baseline” value ([1]; Year 1) was -2.5 mg/dL and the “LDL-C Hopkins between group difference vs placebo, median absolute change from baseline” value ([1]; Year 1) was -9.6 mg/dL. For the same compound, the “LDL-C derived between group difference vs placebo, median % change from baseline” value ([1]; Year 1) was −6.6%, the “LDL-C derived between group difference vs placebo, median absolute change from baseline” value ([1]; Year 1) was -5.0 mg/dL and the “Apo B between group difference vs placebo, median % change from baseline” value ([1]; Year 2) was −9.7%. The “Apo B between group difference vs placebo, median absolute change from baseline” value ([1]; Year 2) was -8.0 mg/dL, the “HDL-C between group difference vs placebo, median % change from baseline” value ([1]; Year 2) was −4.6% and the “HDL-C between group difference vs placebo, median absolute change from baseline” value ([1]; Year 2) was -2.0 mg/dL. The “LDL-C Hopkins between group difference vs placebo, median absolute change from baseline” value ([1]; Year 2) was -9.4 mg/dL, the “Log hsCRP between group difference vs placebo, median absolute change from baseline” value ([1]; Year 2) was −0.4 mg/L and the “hsCRP between group difference vs placebo, median absolute change from baseline” value ([1]; Year 2) was -0.9 mg/L. The “HDL-C between group difference vs placebo, median % change from baseline” value ([1]; Year 3) was −3.8%, the “HDL-C between group difference vs placebo, median absolute change from baseline” value ([1]; Year 3) was -1.5 mg/dL and the “LDL-C Hopkins between group difference vs placebo, median absolute change from baseline” value ([1]; Year 3) was -8.7 mg/dL. For the same compound, the “HDL-C between group difference vs placebo, median % change from baseline” value ([1]; Year 4) was −3.9%, the “HDL-C between group difference vs placebo, median absolute change from baseline” value ([1]; Year 4) was -1.5 mg/dL and the “LDL-C Hopkins between group difference vs placebo, median absolute change from baseline” value ([1]; Year 4) was -8.9 mg/dL. For the same compound, the “Non-HDL-C between group difference vs placebo, median % change from baseline” value ([1]; Year 4) was −12.0%, the “Non-HDL-C between group difference vs placebo, median absolute change from baseline” value ([1]; Year 4) was -14.0 mg/dL and the “Triglycerides between group difference vs placebo, median absolute change from baseline” value ([1]; Year 4) was -38.0 mg/dL. The “HDL-C between group difference vs placebo, median % change from baseline” value ([1]; Year 5) was −3.0%, the “HDL-C between group difference vs placebo, median absolute change from baseline” value ([1]; Year 5) was -1.5 mg/dL and the “LDL-C Hopkins between group difference vs placebo, median % change from baseline” value ([1]; Year 5) was −8.0%. The “LDL-C Hopkins between group difference vs placebo, median absolute change from baseline” value ([1]; Year 5) was -6.6 mg/dL, the “Non-HDL-C between group difference vs placebo, median % change from baseline” value ([1]; Year 5) was −9.9% and the “Non-HDL-C between group difference vs placebo, median absolute change from baseline” value ([1]; Year 5) was -11.0 mg/dL. The “Triglycerides: median reduction from baseline greater than in placebo group (Hodges-Lehmann)” value ([1]; baseline to one year) was 19.7%, the “Total key secondary endpoint: HR vs placebo” value ([2]; primary prevention stratum) was 0.71 and the “Total primary endpoint events: HR vs placebo” value ([2]; primary prevention stratum, adjusted stratification) was 0.79. For the same compound, the “Total primary endpoint events: HR vs placebo” value ([2]; primary prevention stratum, without adjusting for stratification differences) was 0.86, the “Total key secondary endpoint events: HR vs placebo” value ([2]; primary prevention) was 0.78 and the “Total key secondary endpoint: HR vs placebo” value ([2]; secondary prevention stratum) was 0.70. The “Total primary endpoint events: HR vs placebo” value ([2]; secondary prevention stratum, adjusted stratification) was 0.66, the “Total primary endpoint events: HR vs placebo” value ([2]; secondary prevention stratum, without adjusting for stratification differences) was 0.65 and the “Total key secondary endpoint events: HR vs placebo” value ([2]; secondary prevention stratum) was 0.69.
